Data published in patent US20120171123A1, “USES AND COMPOSITIONS FOR TREATMENT OF RHEUMATOID ARTHRITIS” (priority 2006, published 2012).
Like-named read-outs stand apart in the source and are kept apart here.

Columns and labels:
[1] = system: MTX-naïve adult patients with early RA (<3 years); assay: Study J: SF-36 (domains, PCS, MCS) with criteria- and content-based interpretation; format: in vivo, human; parameters: key to mean SF-36 PCS score / SF-36 Role-Physical score / SF-36 Bodily Pain score / SF-36 General Health score / SF-36 Vitality score / SF-36 Social Functioning score / SF-36 Role-Emotional score / SF-36 Mental Health score / SF-36 PCS score / SF-36 MCS score / SF-36 Physical Functioning score: scale 0-100, higher = better health-related quality of life; conditions: for SF-36 Bodily Pain score / SF-36 General Health score / SF-36 MCS score / SF-36 Mental Health score / SF-36 PCS score / SF-36 Physical Functioning score / SF-36 Role-Emotional score / SF-36 Role-Physical score / SF-36 Social Functioning score / SF-36 Vitality score: LOCF
Text: Study J was a 2-year, double-blind, active comparator-controlled, Phase III study conducted at many sites worldwide.
The SF-36 was used to assess the 8 domains of HRQOL—physical functioning, role-physical, bodily pain, general health, vitality, social functioning, role-emotional, and mental health. These 8 domains were aggregated into Physical Component Summary (PCS) and Mental Component Summary (MCS) scores. The SF-36 has a scale of 0-100, with higher scores indicating better health-related quality of life.
Minimum clinically important differences (MCID) are defined as improvements of 5-10 points in the individual domains scores and 2.5-5 points in the PCS and MCS^5.
All HRQOL domains were measured at baseline, and after 12, 26, 42, 52, 76, and 104 weeks of therapy. In this analysis, mean scores and mean changes in each HRQOL domain are reported, as well as the PCS and MCS, at Weeks 12 and 104. Criteria-based interpretation was used to understand the meaning of differences in PCS scores for work loss and resource use and content-based interpretation for specific SF-36 items.^4
Study J was a 2-year, double-blind, active comparator-controlled, Phase III study conducted at 149 sites in North America, Europe, and Australia. […] The SF-36 was used to assess the 8 domains of HRQOL—physical functioning, role-physical, bodily pain, general health, vitality, social functioning, role-emotional, and mental health. These 8 domains were aggregated into Physical Component Summary (PCS) and Mental Component Summary (MCS) scores. The SF-36 has a scale of 0-100, with higher scores indicating better health-related quality of life. Minimum clinically important differences (MCID) are defined as improvements of 5-10 points in the individual domains scores and 2.5-5 points in the PCS and MCS (Kosinski M, et al. Arthritis Rheum 2000:43:1478-87). All HRQOL domains were measured at baseline, and after 12, 26, 42, 52, 76, and 104 weeks of therapy. In this analysis, we report mean scores and mean changes in each HRQOL domain, as well as the PCS and MCS, at Weeks 12 and 104. We used criteria-based interpretation to understand the meaning of differences in PCS scores for work loss and resource use and content-based interpretation for specific SF-36 items (Weinblatt M E, et al. Arthritis Rheum 2003; 48:35-45).

[2] = system: patients with RA who had failed prior treatment with infliximab; assay: Adalimumab after failed infliximab (16-week study): DAS28; format: in vivo, human; conditions: for Change in DAS28, mean change from baseline: 16 wk
Text: Patients eligible to participate in the study included those with long-standing, moderate to severe RA who had terminated infliximab therapy because of lack or loss of efficacy and/or intolerance/side effects. […] Follow-up visits for safety and efficacy monitoring were scheduled at 2, 8, and 16 weeks. […] Efficacy parameters included TJC28 and SJC28; DAS28; ACR20, ACR50 Response; Moderate EULAR response; and HAQ. Subgroup analysis by reason for discontinuation included: • in case of discontinuation due to lack or loss of efficacy, patients were counted in the corresponding group regardless of additional cause of intolerance. • The subgroup “Discontinuation due to intolerance” was exclusive.

[3] = system: patients with long-standing RA
[4] = system: MTX-naïve adult patients with active, early RA (<3 years); conditions: in vivo
Text: Study J was a 2-year randomized controlled trial in patients with early RA (disease duration<3 years). Participants in these clinical trials and in other phase Mb studies, were routinely evaluated for safety. Reports of serious adverse events (SAE) were tabulated using MedDRA coding by events per 100-patient-years (E/100PY). SAE rates were compared with respect to disease duration between patients with early (<3 yrs) and long-standing RA.

[5] = Baseline, percentages based on general US population norms
[6] = Week 104, percentages based on general US population norms

CN(Cc1cnc2nc(N)nc(N)c2n1)c1ccc(C(=O)N[C@@H](CCC(=O)O)C(=O)O)cc1 [mtx alone, methotrexate]
SF-36 Bodily Pain score ([1]; Baseline): 29.9
SF-36 General Health score ([1]; Baseline): 49.7
SF-36 MCS score ([1]; Baseline): 43.5
SF-36 Mental Health score ([1]; Baseline): 62.1
SF-36 PCS score ([1]; Baseline): 32.2
SF-36 Physical Functioning score ([1]; Baseline): 38.9
SF-36 Role-Emotional score ([1]; Baseline): 41.1
SF-36 Role-Physical score ([1]; Baseline): 16.4
SF-36 Social Functioning score ([1]; Baseline): 56.5
SF-36 Vitality score ([1]; Baseline): 37.1
Interpretation of SF-36 PCS, Content-Based: Climb stairs [1, 5]: 66.4%
Interpretation of SF-36 PCS, Content-Based: Difficulty working [1, 5]: 88.1%
Interpretation of SF-36 PCS, Content-Based: Have energy [1, 5]: 9.7%
Interpretation of SF-36 PCS, Content-Based: Time off work [1, 5]: 64.8%
Interpretation of SF-36 PCS, Content-Based: Walk on block [1, 5]: 44.4%
Interpretation of SF-36 PCS, criteria-based: Hospitalized [1, 5]: 10.7%
Interpretation of SF-36 PCS, criteria-based: Job loss [1, 5]: 30.3%
Interpretation of SF-36 PCS, criteria-based: MD visit [1, 5]: 47.7%
Interpretation of SF-36 PCS, criteria-based: Not work [1, 5]: 44.1%
SF-36 Bodily Pain score ([1]; Week 12): 51.0
SF-36 General Health score ([1]; Week 12): 58.9
SF-36 MCS score ([1]; Week 12): 49.0
SF-36 Mental Health score ([1]; Week 12): 71.2
SF-36 PCS score ([1]; Week 12): 38.3
SF-36 Physical Functioning score ([1]; Week 12): 51.1
SF-36 Role-Emotional score ([1]; Week 12): 60.5
SF-36 Role-Physical score ([1]; Week 12): 40.4
SF-36 Social Functioning score ([1]; Week 12): 72.0
SF-36 Vitality score ([1]; Week 12): 51.6
SF-36 Bodily Pain score ([1]; Week 104): 57.0
SF-36 General Health score ([1]; Week 104): 68.3
SF-36 MCS score ([1]; Week 104): 49.9
SF-36 Mental Health score ([1]; Week 104): 72.9
SF-36 PCS score ([1]; Week 104): 41.2
SF-36 Physical Functioning score ([1]; Week 104): 58.9
SF-36 Role-Emotional score ([1]; Week 104): 64.5
SF-36 Role-Physical score ([1]; Week 104): 48.6
SF-36 Social Functioning score ([1]; Week 104): 75.5
SF-36 Vitality score ([1]; Week 104): 56.9
Interpretation of SF-36 PCS, Content-Based: Climb stairs [1, 6]: 30.7%
Interpretation of SF-36 PCS, Content-Based: Difficulty working [1, 6]: 51.2%
Interpretation of SF-36 PCS, Content-Based: Have energy [1, 6]: 26.6%
Interpretation of SF-36 PCS, Content-Based: Time off work [1, 6]: 29.8%
Interpretation of SF-36 PCS, Content-Based: Walk on block [1, 6]: 21.4%
Interpretation of SF-36 PCS, content-based: Climb stairs [1, 6]: 30.7%
Interpretation of SF-36 PCS, content-based: Difficulty working [1, 6]: 61.2%
Interpretation of SF-36 PCS, content-based: Have energy [1, 6]: 26.6%
Interpretation of SF-36 PCS, content-based: Time off work [1, 6]: 29.8%
Interpretation of SF-36 PCS, content-based: Walk on block [1, 6]: 21.4%
Interpretation of SF-36 PCS, criteria-based: Hospitalized [1, 6]: 7.7%
Interpretation of SF-36 PCS, criteria-based: Job loss [1, 6]: 20.8%
Interpretation of SF-36 PCS, criteria-based: MD visit [1, 6]: 34.6%
Interpretation of SF-36 PCS, criteria-based: Not work [1, 6]: 24.2%
mean SF-36 PCS score ([1]; week 12 (baseline 31.7 combination, 32.2 MTX)): 38.3

adalimumab: human anti-TNF mAb (HUMIRA, Abbott Laboratories), described in U.S. Pat. No. 6,090,382 as D2E7
Change in DAS28, mean change from baseline ([2]; all reasons for infliximab withdrawal (N=37)): −1.6
Change in DAS28, mean change from baseline ([2]; infliximab intolerance (N=5)): −1.4
Change in DAS28, mean change from baseline ([2]; no response to infliximab (N=13)): −1.0
maximum change in DAS28 ([2]; week 16): −4.7
patients with a decrease in DAS28 of ≧1.2 ([2]; week 16, completers (21 of 37)): 57%
Demyelinating disease ([3]; all exposure): 0.04 E/100-PY
Lymphoma ([3]; all exposure): 0.16 E/100-PY
Pancytopenia ([3]; all exposure): 0.00 E/100-PY
Pneumonia ([3]; all exposure): 0.6 E/100-PY
Septic arthritis ([3]; all exposure): 0.12 E/100-PY
Tuberculosis ([3]; all exposure): 0.04 E/100-PY
Urinary tract infections ([3]; all exposure): 0.28 E/100-PY
Serious infections ([3]; all exposure, 2485 patient-years): 2.62 E/100-PY
Demyelinating disease ([3]; pivotal trials): 0.13 E/100-PY
Lymphoma ([3]; pivotal trials): 0.25 E/100-PY
Pancytopenia ([3]; pivotal trials): 0.25 E/100-PY
Pneumonia ([3]; pivotal trials): 1.13 E/100-PY
Septic arthritis ([3]; pivotal trials): 0.38 E/100-PY
Tuberculosis ([3]; pivotal trials): 0.13 E/100-PY
Urinary tract infections ([3]; pivotal trials): 0.5 E/100-PY
Serious infections ([3]; pivotal trials, 793 patient-years): 4.16 E/100-PY
All infectious AE [4]: 110 Events/100-PY
Demyelination [4]: 0.0 Events/100-PY
Lymphoma [4]: 0.0 Events/100-PY
Malignancies [4]: 0.9 Events/100-PY
Pancytopenia [4]: 0.0 Events/100-PY
Serious AE [4]: 21.1 Events/100-PY
Serious Infectious AE [4]: 0.7 Events/100-PY
